Each structure is given as a SMILES string.

The molecule `CC(C)(C)c1cc(CS[C@@H]2CCCCCC[C@H]2SCc2cc(C(C)(C)C)cc(C(C)(C)C)c2O)c(O)c(C(C)(C)C)c1` (relative stereo) returned a melting point of 122 to 123 °C.

`COc1c(S(N)(=O)=O)cc(C(=O)O)c2c1OCCO2` came in with a melting point of 247 to 248 °C. `O=C(O)c1cn(-c2cc(F)cc(C(F)(F)F)c2)cn1` came in with a melting point of more than 250 °C. Turning to `CC(Oc1ccc(Oc2nc3ccc(Cl)cc3s2)cc1)C(=S)OC[Si](C)(C)C` (centres undefined), the melting point was 90 °C.

On to `Cc1nc(-c2cccnc2)c2nc(-c3ccccc3)cc-2[nH]1`, for which the melting point was 252 to 254 °C. To `CC(=O)NCCc1cccc2ccc(OCCCO)cc12` belongs 141 to 142 °C. Regarding `O=C(c1ccc(Cl)c(Cl)c1)N1CCCC(c2cc(Br)cc(Br)c2)=N1`, the melting point was in the range of 179 to 182 °C.

In the case of `COc1cc2c(cc1OC)CCCC(C(=O)N1CCNCC1)=C2`, the melting point fell in the range of 137 to 138 °C.

Turning to `O/N=C(\Cl)c1cccc(Cl)c1`, the melting point was in the range of 58 to 60 °C. To `CCOC(=O)c1sc2nc(SCCCN3CCN(c4ccccn4)CC3)[nH]c(=O)c2c1C` belongs 160 to 162 °C. To `Nc1nc(Cl)c(NC=O)c(N[C@@H]2CC=C(CO)C2)n1` belongs 148 to 150 °C; to `COC(=O)CCc1cc2cc(Cl)ccc2n1S(=O)(=O)c1ccc(C(F)(F)F)cc1`, 82 to 86 °C; to `CC(C)CN1C(N)=CC(=O)N2CCN=C21`, 230 to 232 °C. To `Cc1ccc(Cl)c(NS(=O)(=O)C2(NC=O)N=CN=N2)c1Cl` (centres undefined) belongs 275 to 279 °C; to `C=CC(=O)N1C(C)(C)CC(OC(=O)C(C#N)(Cc2cc(C(C)(C)C)c(O)c(C(C)(C)C)c2)Cc2cc(C(C)(C)C)c(O)c(C(C)(C)C)c2)CC1(C)C`, 174 °C. In turn, `CC(=O)OCc1nc(C(C)C)c(Sc2cc(Cl)cc(Cl)c2)n1C` returned a melting point of 92 to 93 °C.

For the molecule `Cc1c(Cl)cccc1S(=O)(=O)C[N+](=O)[O-]`, the melting point lay within 78 to 79 °C. Under `COc1cc(N)c([N+](=O)[O-])c(OC(F)F)c1OC` stands 141 to 142 °C; under `CCN(CC)S(=O)(=O)c1ccccc1S(N)(=O)=O`, 156 to 159 °C. Under `CNc1nc(-c2cccc(NC(=O)c3ccc(Cl)cc3)c2)c2cc(OC)c(OC)cc2n1` stands 193 to 195 °C; under `O=S(=O)(c1cnn(-c2c(Cl)cc(C(F)(F)F)cc2Cl)c1-n1cccn1)C(F)(F)F`, 127 to 133 °C. The molecule `Cc1nc(S(C)(=O)=O)oc1C` showed a melting point of 42 °C. To `COc1cccc(C2CSc3ccccc3NC2=O)c1` (centres undefined) belongs 198 °C; to `CC(C)(C)OC(=O)N1CC=C(c2cnc(COc3ccc(S(C)(=O)=O)cc3)cc2Cl)CC1`, 148 to 150 °C. Turning to `CC(=NOCCOc1ccc(CC2SC(=O)NC2=O)cc1)c1cccc(Cl)c1` (centres undefined), the melting point lay within 82 to 84 °C.

As for `COc1cc(-c2cccc(Cl)c2)c2cc(C(O)c3cncn3C)ccc2n1` (centres undefined), the melting point came to 205 °C. For the molecule `CCn1nc(-c2ccccc2)c(C(C)=O)c([N+](=O)[O-])c1=O`, the melting point fell in the range of 226 to 227 °C.

As to `CCOCCNC(=O)c1ccc(-c2ccc(C(CC3CCOCC3)c3ccc(S(=O)(=O)C4CC4)cc3)[nH]2)nc1` (centres undefined), the melting point fell in the range of 87 to 90 °C. The molecule `CCNc1cc(-c2c(-c3cccc(C)c3)nc3cccnn23)ccn1` came in with a melting point of 151 to 153 °C. Take `CN(C)CC=Cc1ccc2c(c1)CCN2C(=O)c1ccc(-c2ccccc2)cc1`: the melting point is 174 to 176 °C. Under `COc1ccc2nc(-c3cc(C(F)(F)F)nn3-c3ccc(S(N)(=O)=O)cc3)sc2c1` stands 236 to 237 °C; under `Cn1nc(-c2nc(C#N)c(C#N)nc2-c2ccccc2)ccc1=O`, 210 to 212 °C; under `COc1ccc(-c2sc3cc(OC)ccc3c2C(=O)c2ccc(/C=C/C(=O)O)cc2)cc1`, 204 to 207 °C.

Molecule `CCCc1c(OCc2ccc(C(=O)OCC)c(OCC)c2)ccc(C(C)=O)c1O` showed a melting point of 92 to 94 °C.

`CC1CCCN(Cc2cccc(OCCCCNc3nnc(N)s3)c2)C1` (centres undefined): the melting point lay in the range of 123 to 124 °C. To `OCC(O)COc1ccc(Br)cc1` (centres undefined) belongs 69 to 75 °C; to `C[Si](C)(C)c1cccc2c1S(=O)c1c(cccc1[Si](C)(C)C)S2`, 210 to 211 °C; to `CCCC[C@H](OCC[C@]1(C(=O)N2CCC(OCOC)CC2)C=CC=CC1)C(=O)N[C@@H](CC1CCCCC1)[C@@H](O)C(F)(F)CN(C)C`, 47 to 49 °C.

The molecule `Cc1ccc(C(=S)c2[nH]c3cc(Cl)ccc3c2N)cc1` showed a melting point of 172 to 173 °C.

As to `CCOC(=O)Cc1ccc(N(C)c2nc(=O)c3cccnc3s2)cc1`, the melting point lay in the range of 156 to 159 °C.

For the molecule `Cc1ccc(S(=O)(=O)OCC2COc3cc(F)c([N+](=O)[O-])cc3O2)cc1` (centres undefined), the melting point lay in the range of 106 to 107 °C.

In turn, `CCOC(=O)c1c(Cn2cncn2)nc2sc(C)c(C)c2c1-c1ccc2c(c1)OCO2` yielded a melting point of 109 to 110 °C. `N=C(N)c1ccc(N2CCC(N3CCN(CCC(=O)O)C3=O)CC2)cc1` displayed a melting point of more than 275 °C. Under `COc1cccc(F)c1-n1nnc2cc(C(C)(C)C)c(OCc3ncnn3C)nc21` stands 116 to 118 °C; under `O=C1N(CC2CCCO2)c2c(Cl)cccc2C12COc1cc3c(cc12)CCO3` (centres undefined), 192 to 193 °C. To `CCc1cc(C(=O)c2ccccc2Cl)c(-n2c(C)nnc2CNC(=O)/C=C/c2ccccc2)s1` belongs 150 to 151 °C; to `CC1CC(C)CN(S(=O)(=O)c2ccc(F)c(C(=O)O)c2)C1` (centres undefined), 140 °C; to `CCOC(=O)c1c(C)nn(C)c1S(N)(=O)=O`, 112 to 113 °C. `O=C(O)CCC(=O)c1ccc(-c2cccc(F)c2)cc1`: the melting point was 153 to 155 °C. Under `CCCc1nc2c(C)cnc(C(=O)O)c2n1Cc1ccc(-c2ccccc2-c2nnn[nH]2)cc1` stands 161 to 163 °C.

In turn, `COc1ccc(C2C(=O)N(c3ccccc3)N(c3ccccc3)C2=O)cc1` registered a melting point of 184 to 185 °C.

`CC(C)c1ccc2cc(OCCF)ccc2c1` registered a melting point of 46 to 48 °C. Molecule `CC(C)NCC(O)COc1ccc(CCOC2CCCC2)cc1` (centres undefined) gave a melting point of 66 °C. Under `CCOC12CC(C)(C)C(O1)C(OC(=O)c1ccc([N+](=O)[O-])cc1)C=C2C` (centres undefined) stands 144 to 146 °C; under `COc1ccc(Oc2c(C)cc(N)cc2C)cc1C(C)C`, 95 to 100 °C. Under `OCC(Br)c1ccccc1` (centres undefined) stands 38 to 39 °C.

The molecule `CCCCn1cc(C(=O)O)c(=O)c2oc3ccc(Cl)cc3c(=O)c21` displayed a melting point of 271 to 273 °C.

As to `CCc1ncc(CCCOc2ccc(-c3nnn(C)n3)cc2)n1C`, the melting point lay in the range of 115 to 117 °C. Take `CS(=O)(=O)c1ccc(C=CCN2CCc3nc(N)sc3CC2)cc1`: the melting point lay in the range of 157 to 161 °C. For the molecule `OCC1c2cc(Cl)ccc2Oc2ccc(Cl)cc21`, the melting point was 134 to 136 °C.

As for `CC1(C)CON(Cc2c(F)cccc2Cl)C1=O`, the melting point was 49 to 51 °C.

As to `CC(=O)Oc1ccccc1C1SC[C@@H](C(=O)O)N1C(=O)CCSC(=O)c1ccc(C)cc1` (some centres undefined), the melting point lay in the range of 93 to 96 °C. With `NC(=O)c1ccc(-c2cccc(N)c2)cc1`, the melting point was in the range of 206 to 208 °C. To `CCCc1nn(C)c2c(=O)n(CCCOc3ccc(OC(C)(C)C(=O)O)cc3)c(CC)nc12` belongs 124 to 126 °C; to `N#CCC(=O)NCCCNC(=O)CC#N`, 146 °C.

`Cc1nc2c(CCc3ccccc3)cccn2c1CC#N`: the melting point lay within 120 to 123 °C. Under `COC(=O)CCCC#Cc1nc(C(F)(F)F)ccc1N` stands 49 °C; under `CNC(=O)c1ccc2c(c1)c(-c1cc3cccnc3[nH]1)cn2C`, 186 °C. `COc1c(O)cccc1C(=O)C1CCN(CCc2ccc(F)cc2)CC1` gave a melting point of 100 to 101 °C. Under `CCOc1nc(C)c2cc(OC)c(OC)cc2c1C(=O)OC` stands 147 to 149 °C. Take `C[C@@H]1CN(c2c(F)c(N)c3c(=O)c(C(=O)O)cn(C4CC4)c3c2F)C[C@H](C)N1`: the melting point is 258 to 260 °C. Under `COC(=O)[C@@]12CO[C@@H](C(C)(C)C)N1C(=O)[C@@H](C)C2` stands 107 to 108 °C; under `COc1ccc(C(=O)CCCC(=O)C(F)(F)F)cc1`, 67.5 to 68.9 °C; under `ClCCN(CCCl)CCOc1cccc2c(Cl)c3ccccc3nc12`, 105 to 106 °C. Consider `CN(C)CC/C=C1/c2ccccc2COc2ccc(C(=O)O)cc21`, for which the melting point was 121 to 123 °C. Consider `O=C(Nc1ccc2nc(CN3CCCC3)ccc2c1)c1ccc(-c2ccc(F)cc2)nc1`, for which the melting point worked out at 210 °C. To `CCCCC=CCCCCC(=O)CCCCC=CCCCCC=O` belongs 80 to 83 °C; to `COC(=O)c1c(OC)c(OC)cc2[nH]c(=O)c(=O)[nH]c12`, more than 300 °C.

With `COP(=O)(Cc1nc2ccccc2nc1CP(=O)(OC)OC)OC`, the melting point fell in the range of 115 to 116 °C. Consider `Cn1ncc(/C=C/C(=O)Nc2ccc(Cc3nc(C(N)=O)cs3)cc2)c1-c1ccc(F)cc1`, for which the melting point lay within 159 to 160 °C. In turn, `c1cn2nc(N3CCCCC3)c3c(c2n1)CCCC3` came in with a melting point of 95 °C. Under `O=CC(Cl)=Cc1cccc(Oc2ccc([N+](=O)[O-])c([N+](=O)[O-])c2)c1` stands 100 to 101 °C; under `CCN1CCC(O)(c2cccc(Cl)c2F)C1` (centres undefined), 71 to 74 °C; under `CC(C)Cn1c(=O)c2nc(-c3ccc(/C=C/C(=O)O)cc3)[nH]c2n(CC(C)C)c1=O`, more than 300 °C.

`O=c1[nH]c(=O)n(C2CC(F)C(CF)O2)cc1C=CBr` (centres undefined): the melting point was in the range of 177 to 180 °C. In turn, `COc1ccc(CC2CCN(C(=O)C(=O)Nc3ccc4c(c3)CC(=O)N4)CC2)cc1` returned a melting point of 215 to 217 °C.

`Cn1c(Cc2cccc(C(F)(F)F)c2)nc2c(-c3cccc(C(=O)NCCC#N)c3)cccc21` returned a melting point of 168 to 169 °C.

For `O=C1NC(=S)C(c2cccc(Cl)c2)C1c1ccccc1` (centres undefined), the melting point was 104 to 106 °C. As to `CC(=O)OC(C(C)C(C)C)C(OC(C)=O)C(C)C1CCC2C3CC(=O)C4CC=CCC4(C)C3CCC12C` (centres undefined), the melting point lay in the range of 210 to 213 °C.

By melting point is commonly meant the temperature, or range, at which the solid turns liquid.

The record behind these values is a melting point compilation (Tetko et al.; mined from patent text by program, amines drawn as free bases though some values may be those of a salt).
